Results taken from patent US12391737B2, “Soluble NPY2 receptor agonists” (Boehringer Ingelheim International GmbH, priority 2020, dated 2025).

Assays:
[1] = target: T1, human NPY1 receptor (hY1R) (Homo sapiens, UniProt P25929); experiment: HTRF cAMP Gi assay, hY1R; format: cell-based; conditions: CHO-K1 cells
T1 construct: expressed in transfected cells; host or cells: CHO-K1
T1 sequence (P25929 1-384): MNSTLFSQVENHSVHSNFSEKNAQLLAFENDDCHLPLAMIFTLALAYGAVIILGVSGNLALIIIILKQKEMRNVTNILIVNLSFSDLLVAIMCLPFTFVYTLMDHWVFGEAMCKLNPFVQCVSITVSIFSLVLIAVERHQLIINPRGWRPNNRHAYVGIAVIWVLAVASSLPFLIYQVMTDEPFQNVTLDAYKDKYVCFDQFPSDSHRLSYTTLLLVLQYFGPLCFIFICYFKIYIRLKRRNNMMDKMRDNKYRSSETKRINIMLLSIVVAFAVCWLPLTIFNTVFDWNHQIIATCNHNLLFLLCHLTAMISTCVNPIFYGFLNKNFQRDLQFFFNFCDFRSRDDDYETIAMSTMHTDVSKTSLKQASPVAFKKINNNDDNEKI
Method: Briefly, the production of intracellular cAMP will generate a competition between unlabeled cAMP and exogenously added d2-cAMP for anti-cAMP antibodies conjugated to cryptate. CHO-K1 cells stably expressing the human NPY1, NPY2, NPY4 and NPY5 receptors were used with the cells brought to life from a frozen stock immediately before assay performance. 2000 cells per well were applied for all four NPY receptor subtype assays. A 384-well format was used applying a total volume of 20 μl using 5 μl cells, 2.5 μl peptide agonist, 2.5 μl forskolin and 5 μl of each of the fluorophores. […] Concentration-response evaluation of compounds was performed with 11 concentrations of agonist peptides (covering 3 decades). EC50 values were calculated by nonlinear regression using sigmoid concentration-response with variable slope.

[2] = target: T2, human NPY4 receptor (hY4R) (Homo sapiens, UniProt P50391); experiment: HTRF cAMP Gi assay, hY4R; format: cell-based; conditions: CHO-K1 cells
T2 construct: expressed in transfected cells; host or cells: CHO-K1
T2 sequence (P50391 whole entry): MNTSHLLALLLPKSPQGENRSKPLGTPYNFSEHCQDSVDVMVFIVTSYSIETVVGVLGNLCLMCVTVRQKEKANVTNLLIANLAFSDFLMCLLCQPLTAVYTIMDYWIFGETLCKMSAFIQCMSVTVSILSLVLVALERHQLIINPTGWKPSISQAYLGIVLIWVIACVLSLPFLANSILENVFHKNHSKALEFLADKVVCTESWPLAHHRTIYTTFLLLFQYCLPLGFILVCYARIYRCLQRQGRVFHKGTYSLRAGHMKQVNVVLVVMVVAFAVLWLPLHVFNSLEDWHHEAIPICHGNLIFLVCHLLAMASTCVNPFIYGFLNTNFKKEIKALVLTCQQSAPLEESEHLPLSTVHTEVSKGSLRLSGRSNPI

Solubility determination = conditions: for Sol6: pH 6; for Sol7: pH 7
Method in brief: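 Shake-flask style: 10 mg/ml peptide (TFA salt), 0.1 M sodium diphosphate pH 6.4/7.0, 600 rpm, 2 h, RT; filter; dilute 1 mg/ml in 50% MeCN; RP-UPLC, 0–100% B over 2 min, 50 °C. Solubility = sample/control area ratio. Final pH recorded.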

[3] = target: T3, Human Neuropeptide Y2 Receptor (Homo sapiens, UniProt P49146); experiment: Activity (RLB binding) after incubation in solutions at different pH values
T3 construct: purchased CHEMICON HTS066M
T3 sequence (P49146 1-381): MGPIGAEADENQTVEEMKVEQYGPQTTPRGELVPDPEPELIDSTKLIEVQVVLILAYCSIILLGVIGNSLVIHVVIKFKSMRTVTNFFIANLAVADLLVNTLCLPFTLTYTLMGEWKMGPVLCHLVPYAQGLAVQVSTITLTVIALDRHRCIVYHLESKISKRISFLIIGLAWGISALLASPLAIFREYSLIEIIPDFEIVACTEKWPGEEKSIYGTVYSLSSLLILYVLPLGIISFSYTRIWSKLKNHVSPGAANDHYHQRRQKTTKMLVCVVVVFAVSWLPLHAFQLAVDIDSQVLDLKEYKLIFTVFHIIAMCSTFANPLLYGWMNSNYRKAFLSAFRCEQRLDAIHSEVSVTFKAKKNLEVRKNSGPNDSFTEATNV
Method: The filtration RLB assay was carried out in 96-well plates in a final volume of 100 μl per well. Freeze-dried test peptides were dissolved in 100% dimethyl sulfoxide (DMSO) to stock solutions of 1 mM and serial dilutions were performed in assay buffer (50 mM HEPES, 5 mM MgCl2, 1 mM CaCl2, pH 7.4) containing 0.2% ovalbumin. […] Next, 80 μL membranes (HTS066M, ChemiSCREEN™ Human Neuropeptide Y2 Receptor Membrane Preparation, CHEMICON) were added to each well to give a final protein concentration of 0.5 μg/well. The plates were sealed and incubated at room temperature for 2 hours in a plate shaker set at 400 rpm. The incubation was stopped by vacuum filtration onto 0.5% polyethylene amine (PE) presoaked GF/C filters using a 96-well FilterMate™ harvester (Perkin Elmer) followed by four washes with 300 μl/well ice-cold wash buffer (50 mM HEPES, 500 mM NaCl, pH7.4). Filter plates were then dried for 60 min at room temperature and the bottom of the plates was sealed with backing tape UniFilter-96. Finally, 50 μl/well scintillation counter cocktail (Microscint20, Packard) was added and the radioactivity was counted in the Packard TopCount NXT scintillation counter. IC50 values (the half maximal inhibitory concentration of the agonist) were calculated by nonlinear regression analysis of sigmoidal dose-response curves.
The peptide was (partially) dissolved by shaking the filter unit horizontally at approx. 400 rpm for 2 hours at room temperature. The sample was filtered to remove any insoluble particles.

[4] = target: T4, human NPY5 receptor (hY5R) (Homo sapiens, UniProt Q15761); experiment: HTRF cAMP Gi assay, hY5R
T4 sequence (Q15761 1-445): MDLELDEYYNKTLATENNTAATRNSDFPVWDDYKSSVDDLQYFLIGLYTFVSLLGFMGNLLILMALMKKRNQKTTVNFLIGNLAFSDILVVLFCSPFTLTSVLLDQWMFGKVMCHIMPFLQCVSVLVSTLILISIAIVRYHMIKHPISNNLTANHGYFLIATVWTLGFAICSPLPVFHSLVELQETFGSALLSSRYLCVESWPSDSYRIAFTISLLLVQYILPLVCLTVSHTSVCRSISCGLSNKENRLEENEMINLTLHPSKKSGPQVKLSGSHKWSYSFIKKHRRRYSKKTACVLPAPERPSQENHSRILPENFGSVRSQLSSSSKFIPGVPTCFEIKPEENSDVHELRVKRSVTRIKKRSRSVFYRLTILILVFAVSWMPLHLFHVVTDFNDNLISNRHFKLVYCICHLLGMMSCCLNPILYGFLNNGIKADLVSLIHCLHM

[5] = target: T3, Human Neuropeptide Y2 Receptor; experiment: Radioligand binding competition assay (RLB)
Method in brief: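 Peptides were serially diluted from 1 mM DMSO stocks and competed for radioligand binding to receptor membranes (0.5 μg/well) over 2 h at room temperature, pH 7.4 HEPES buffer. Bound radioactivity on filters was counted by scintillation, and IC50 was derived by nonlinear regression.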

[6] = target: T5, human NPY2 receptor (hY2R) (Homo sapiens, UniProt P49146); experiment: HTRF cAMP Gi assay, hY2R
T5 sequence (P49146 1-381): T3 sequence (P49146 1-381)
Text: The Homogenous Time Resolved fluorescence (HTRF) technology optimized for Gi coupled receptors has thoroughly been described in Cisbio cAMP Gi kit manual. Briefly, the production of intracellular cAMP will generate a competition between unlabeled cAMP and exogenously added d2-cAMP for anti-cAMP antibodies conjugated to cryptate. CHO-K1 cells stably expressing the human NPY1, NPY2, NPY4 and NPY5 receptors were used with the cells brought to life from a frozen stock immediately before assay performance. 2000 cells per well were applied for all four NPY receptor subtype assays. A 384-well format was used applying a total volume of 20 μl using 5 μl cells, 2.5 μl peptide agonist, 2.5 μl forskolin and 5 μl of each of the fluorophores. […] Concentration-response evaluation of compounds was performed with 11 concentrations of agonist peptides (covering 3 decades). EC50 values were calculated by nonlinear regression using sigmoid concentration-response with variable slope.

[7] = apparent Ki of filtrate after incubation at pH7.1-7.2, assumed 10 mg/ml, read-out: RLB 7 (pH7.1-7.2)
[8] = apparent Ki of filtrate after incubation at pH8.1-8.2, assumed 10 mg/ml, read-out: RLB 8 (pH8.1-8.2)
[9] = Table 3, 125I-PYY(1-36) competition, read-out: Ki

SMILES	EC50 [1] [nM]	EC50 [2] [nM]	Sol6 (Solubility determination) [mg/mL]	Sol7 (Solubility determination) [mg/mL]	Ki [3, 7] [nM]	Ki [3, 8] [nM]	EC50 [4] [nM]	Ki [5, 9] [nM]	EC50 [6] [nM]	Ki ([5]; Table 8, DMSO stock, read-out: hY2R RLB Ki (nM) DMSO) [nM]	Ki ([3]; apparent Ki of filtrate after incubation at pH6.1-6.2, assumed 10 mg/ml, read-out: RLB 6 (pH6.1-6.2)) [nM]
CC[C@H](C)[C@H](NC(=O)[C@H](Cc1ccc(O)cc1)NC(=O)[C@H](Cc1ccc(O)cc1)NC(=O)[C@H](CCCNC(=N)N)NC(=O)[C@H](CCC(N)=O)NC(=O)[C@@H](NC(=O)[C@H](CCC(=O)O)NC(=O)[C@H](CCC(=O)O)NC(=O)[C@@H]1CCCN1C(=O)[C@H](CO)NC(=O)[C@H](C)NC(=O)[C@H](CC(=O)O)NC(=O)[C@H](C)NC(=O)[C@H](CCC(=O)O)NC(=O)[C@@H]1CCCN1C(=O)[C@H](CCCCNC(=O)CCCCCNC(=O)CC[C@H](NC(=O)CCCCCCCCCCCCCCCCC(=O)O)C(=O)O)NC(=O)[C@H](CCC(=O)O)NC(=O)[C@@H]1CCCN1C(=O)[C@H](C)NC(=O)CC(C)C)[C@@H](C)CC)C(=O)N[C@@H](C)C(=O)N[C@@H](CC(C)C)C(=O)N[C@@H](CCCNC(=N)N)C(=O)N[C@@H](Cc1c[nH]cn1)C(=O)N[C@@H](Cc1ccc(O)cc1)C(=O)N[C@@H](Cc1ccc(O)cc1)C(=O)N[C@@H](CC(N)=O)C(=O)N[C@@H](Cc1c[nH]c2ccccc12)C(=O)N[C@@H](CC(C)C)C(=O)N[C@H](C(=O)N[C@@H](CCCNC(=N)N)C(=O)N[C@@H](CCC(N)=O)C(=O)N[C@@H](CCCNC(=N)N)C(=O)N[C@@H](Cc1ccc(O)cc1)C(N)=O)[C@@H](C)O [Compound 40, N{alpha-4}-(3-methylbutanoyl)-N{epsilon-7}-(6-[(4S)-4-carboxy-4-(17-carboxyheptadecanamido)butanamido]hexanoyl)[4A,7K,9E,10A,17I,18Q,22I,23A,28Y,30W,31L]-hPYY(4-36)]	> 5000	> 5000	8.5	8.2	7.3	3.8	> 5000	–	–	–	–
CC(C)CC(=O)N[C@@H](C)C(=O)N1CCC[C@H]1C(=O)N[C@@H](CCC(=O)O)C(=O)N[C@@H](CCCCNC(=O)CCCCCNC(=O)CC[C@H](NC(=O)CCCCCCCCCCCCCCCCC(=O)O)C(=O)O)C(=O)N1CCC[C@H]1C(=O)N[C@@H](CCC(=O)O)C(=O)N[C@@H](C)C(=O)N[C@@H](CC(=O)O)C(=O)N[C@@H](C)C(=O)N[C@@H](CO)C(=O)N1CCC[C@H]1C(=O)N[C@@H](CCC(=O)O)C(=O)N[C@@H](CCC(=O)O)C(=O)N[C@@H](CC(C)C)C(=O)N[C@@H](CCC(N)=O)C(=O)N[C@@H](CCCNC(=N)N)C(=O)N[C@@H](Cc1ccc(O)cc1)C(=O)N[C@@H](Cc1ccc(O)cc1)C(=O)N[C@H](C(=O)N[C@@H](C)C(=O)N[C@@H](CC(C)C)C(=O)N[C@@H](CCCNC(=N)N)C(=O)N[C@@H](Cc1c[nH]cn1)C(=O)N[C@@H](Cc1ccc(O)cc1)C(=O)N[C@@H](Cc1ccc(O)cc1)C(=O)N[C@@H](CC(N)=O)C(=O)N[C@@H](Cc1c[nH]c2ccccc12)C(=O)N[C@@H](CC(C)C)C(=O)N[C@H](C(=O)N[C@@H](CCCNC(=N)N)C(=O)N[C@@H](CCC(N)=O)C(=O)N[C@@H](CCCNC(=N)N)C(=O)N[C@@H](Cc1ccc(O)cc1)C(N)=O)[C@@H](C)O)C(C)C [Compound 163, N{alpha-4}-(3-methylbutanoyl)-N{epsilon-7}-(6-[(4S)-4-carboxy-4-(17-carboxyheptadecanamido)butanamido]hexanoyl)-[4A,7K,9E,10A,18Q,22V,23A,28Y,30W,31L]-hPYY(4-36)]	> 5000	> 5000	8.9	9.2	–	4.9	> 5000	0.67	0.13	–	–
CC[C@H](C)[C@H](NC(=O)[C@H](CCC(=O)O)NC(=O)[C@H](CCC(=O)O)NC(=O)[C@@H]1CCCN1C(=O)[C@@H](NC(=O)[C@H](C)NC(=O)[C@H](CC(=O)O)NC(=O)[C@H](CCC(=O)O)NC(=O)[C@H](CCC(=O)O)NC(=O)[C@@H]1CCCN1C(=O)[C@H](CCCCNC(=O)CCCCCNC(=O)CC[C@H](NC(=O)CCCCCCCCCCCCCCCCC(=O)O)C(=O)O)NC(=O)[C@H](CCC(=O)O)NC(=O)[C@@H]1CCCN1C(=O)[C@H](C)NC(=O)CC(C)C)[C@@H](C)O)C(=O)N[C@@H](CCC(N)=O)C(=O)N[C@@H](CCCNC(=N)N)C(=O)N[C@@H](Cc1ccc(O)cc1)C(=O)N[C@@H](Cc1ccc(O)cc1)C(=O)N[C@H](C(=O)N[C@@H](CO)C(=O)N[C@@H](CC(C)C)C(=O)N[C@@H](CCCNC(=N)N)C(=O)N[C@@H](Cc1c[nH]cn1)C(=O)N[C@@H](Cc1ccc(O)cc1)C(=O)N[C@@H](Cc1ccc(O)cc1)C(=O)N[C@@H](CC(N)=O)C(=O)N[C@@H](Cc1c[nH]c2ccccc12)C(=O)N[C@@H](CC(C)C)C(=O)N[C@H](C(=O)N[C@@H](CCCNC(=N)N)C(=O)N[C@@H](CCC(N)=O)C(=O)N[C@@H](CCCNC(=N)N)C(=O)N[C@@H](Cc1ccc(O)cc1)C(N)=O)[C@@H](C)O)C(C)C [Compound 176, N{alpha-4}-(3-methylbutanoyl)-N{epsilon-7}-(6-[(4S)-4-carboxy-4-(17-carboxyheptadecanamido)butanamido]hexanoyl)-[4A,7K,9E,13T,17I,18Q,22V,28Y,30W,31L]-hPYY(4-36)]	> 5000	> 5000	9.4	9.3	4	5.7	> 5000	1.48	–	8.7	3.9
